Source: patent publication US20230123334A1, “AMINO LIPID COMPOUND, PREPARATION METHOD THEREFOR, AND APPLICATION THEREOF” (SHENZHEN SHENXIN BIOTECHNOLOGY CO., LTD., priority 2020, published 2023)

Key:
HEK293 cells [1] = test: Preliminary screening as DNA vectors, GFP transfection of HEK293 cells; assay type: cell-based; settings: HEK293 cells; lipid/DOPE liposome with 75 ng plasmid DNA (psin-EGFP-IRES-Puro); number of cells expressing GFP divided by total number of nuclei (Hoechst)
Method in brief: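 First, amino lipid and DOPE were vortexed in sodium acetate buffer (pH 5.6) to form liposomes. Next, these were held with 75 ng EGFP plasmid at room temperature for 30 min. Finally, HEK293 cells were added, cultured at 37° C., Hoechst-stained, and GFP+/total nuclei scored by imaging.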

HEK293 cells [2] = test: Preliminary screening as mRNA vectors, EGFP mRNA transfection of HEK293 cells; assay type: cell-based; settings: HEK293 cells, 96-well plates, EGFP mRNA 50 ng per well; percentage of GFP fluorescent cells relative to total number of cells (Hoechst)
Method in brief: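 Screening format: EGFP mRNA transfection (50 ng/well) into HEK293 in 10% FBS-supplemented DMEM. Percent green fluorescent cells, normalised to Hoechst nuclear count, gave the value; Lipofectamine2000 was the reference transfectant.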

Row | SMILES | Absolute DNA transfection efficiency in HEK293 cells (HEK293 cells [1]) | Absolute mRNA transfection efficiency in HEK293 cells (HEK293 cells [2])
1 | CCCCCCCCCNc1nc(NCCCCCC)nc(NCCN(C)C)n1 [Compound N6N9D1] | 0.0% | 0.0%
2 | CCCCCCCCCCCCCCSc1nc(NCCCN(C)C)nc(SCCCCCCCCCCCCCC)n1 [Compound S14S14D6] | 0.2% | 0.2%
3 | CCCCCCCCCNc1nc(NCCCCCCCC)nc(NCCN2CCCCC2)n1 [Compound N8N9D4] | 0.0% | 0.0%
4 | CCCCCCCCCCCCCCCCCCNc1nc(NCCCCCCCCCCCC)nc(NCCN2CCCCC2)n1 [Compound N12N18D4] | 0.9% | 1.9%
5 | CCCCCCCCCCCCN(CCCCCCCCCCCC)c1nc(NCCCCCC)nc(NCCN(C)C)n1 [N6^2N12D1] | 0.6% | 0.0%
6 | CCCCCCCCCCCCCCSc1nc(NCCCN2CCN(C)CC2)nc(SCCCCCCCCCCC)n1 [Compound S11S14D9] | 4.1% | 9.9%
7 | CCCCCCCCCCCCCCSc1nc(NCCN2CCOCC2)nc(SCCCCCCCCCCCC)n1 [Compound S12S14D2] | 0.1% | 0.2%
8 | CCCCCCCCCCCCSc1nc(NCCN2CCCC2)nc(SCCCCCCCCCCC)n1 [Compound S11S12D3] | 5.4% | 3.2%
9 | CCCCCCCCCCCCCCCSc1nc(NCCCN2CCN(C)CC2)nc(SCCCCCCCCCCCCCC)n1 [Compound S14S15D9] | 0.0% | 0.0%
10 | CCCCCCCCCCCCCCCNc1nc(NCCN2CCOCC2)nc(N(CCCCCCCCCCCC)CCCCCCCCCCCC)n1 [N15^2N12D2] | 0.5% | 0.0%
11 | CCCCCCCCCCCCSc1nc(NCCN(C)C)nc(SCCCCCCCCCC)n1 [Compound S10S12D1] | 6.6% | 0.0%
12 | CCCCCCCCCCCCCCCCNc1nc(NCCN(C)C)nc(N(CCCCCCCCCCCC)CCCCCCCCCCCC)n1 [N16^2N12D1] | 0.0% | 3.4%
13 | CCCCCCCCCCCCNc1nc(NCCCCCCCCCCCC)nc(NCCN(C)C)n1 [Compound N12N12D1] | 0.1% | 0.2%
14 | CCCCCCCCCCCCCCCNc1nc(NCCCCCCCCC)nc(NCCN(C)C)n1 [Compound N9N15D1] | 0.5% | 2.2%
15 | CCCCCCCCCNc1nc(NCCCCCCCC)nc(NCCCN(C)C)n1 [Compound N8N9D6] | 0.4% | 0.0%
16 | CCCCCCCCCCCCCNc1nc(NCCCCCCCCCCCC)nc(NCCN2CCN(C)CC2)n1 [Compound N12N13D5] | 0.3% | 0.0%
17 | CCCCCCCCCCCCNc1nc(NCCCCCCC)nc(NCCCN2CCOCC2)n1 [Compound N7N12D8] | 0.1% | 0.0%
18 | CCCCCCCCCCCCCCCNc1nc(NCCCCCCCC)nc(NCCCN2CCN(C)CC2)n1 [Compound N8N15D9] | 0.0% | 0.1%
19 | CCCCCCCCCCCCSc1nc(NCCCN(C)C)nc(SCCCCCCCCCC)n1 [Compound S10S12D6] | 16.2% | 82.4%
20 | CCCCCCCCCCCCCCCNc1nc(NCCCCCCC)nc(NCCCN2CCOCC2)n1 [Compound N7N15D8] | 0.2% | 0.2%
21 | CCCCCCCCCCCCCCSc1nc(NCCN2CCN(C)CC2)nc(SCCCCCCCC)n1 [Compound S8S14D5] | 29.9% | 52.7%
22 | CCCCCCCCCCCCCCSc1nc(NCCCN2CCN(C)CC2)nc(SCCCCCCCCCC)n1 [Compound S10S14D9] | 3.9% | 5.7%
23 | CCCCCCCCCCCSc1nc(NCCN2CCN(C)CC2)nc(SCCCCCCCCCCC)n1 [Compound S11S11D5] | 3.4% | 28.7%
24 | CCCCCCCCCCCCCCCNc1nc(NCCCCCCCCCCCC)nc(NCCN(CC)CC)n1 [Compound N12N15D7] | 0.8% | 1.4%

Row | SMILES | Absolute DNA transfection efficiency in HEK293 cells (HEK293 cells [1]) | Absolute mRNA transfection efficiency in HEK293 cells (HEK293 cells [2])
25 | CCCCCCCCCCCCCCCCCCSc1nc(NCCCN2CCOCC2)nc(SCCCCCCCCCC)n1 [Compound S10S18D8] | 13.7% | 8.0%
26 | CCCCCCCCCNc1nc(NCCCCCCCC)nc(NCCN2CCOCC2)n1 [Compound N8N9D2] | 0.0% | 0.3%
27 | CCCCCCCCCCCCCNc1nc(NCCCCCCCC)nc(NCCCN2CCN(C)CC2)n1 [Compound N8N13D9] | 1.0% | 0.0%
28 | CCCCCCCCCCCSc1nc(NCCN2CCOCC2)nc(SCCCCCCCCCCC)n1 [Compound S11S11D2] | 0.2% | 0.0%
29 | CCCCCCCCCCCCCCCCSc1nc(NCCN(CC)CC)nc(SCCCCCCCC)n1 [Compound S8S16D7] | 11.8% | 0.5%
30 | CCCCCCCCCCCCCCCCNc1nc(NCCCCCCC)nc(NCCCN(C)C)n1 [Compound N7N16D6] | 0.6% | 5.0%
31 | CCCCCCCCCCCCCCCNc1nc(NCCCCCCCCCCCC)nc(NCCN2CCN(C)CC2)n1 [Compound N12N15D5] | 0.4% | 3.1%
32 | CCCCCCCCCCCCCCCCCCNc1nc(NCCCCCCCCC)nc(NCC2CCN(C)CC2)n1 [Compound N9N18D10] | 2.6% | 1.9%
33 | CCCCCCNc1nc(NCCCCCC)nc(NCC2CCN(C)CC2)n1 [Compound N6N6D10] | 0.0% | 0.0%
34 | CCCCCCCCCCCCCCCCSc1nc(NCCN2CCOCC2)nc(SCCCCCCCCCCCCCCCC)n1 [Compound S16S16D2] | 1.1% | 0.2%
35 | CCCCCCCCCCCCCCCNc1nc(NCCCCCCCCCCC)nc(NCCN2CCCCC2)n1 [Compound N11N15D4] | 0.9% | 2.8%
36 | CCCCCCCCCCCCCCCNc1nc(NCCCCCCCCCCCCC)nc(NCC2CCN(C)CC2)n1 [Compound N13N15D10] | 0.0% | 0.4%
37 | CCCCCCCCNc1nc(NCCCCCCCC)nc(NCC2CCN(C)CC2)n1 [Compound N8N8D10] | 0.0% | 0.0%
38 | CCCCCCCCCCCCCCCCSc1nc(NCCN2CCCCC2)nc(SCCCCCCCCCCC)n1 [Compound S11S16D4] | 1.7% | 0.2%
39 | CCCCCCCCCCCNc1nc(NCCCCCC)nc(NCC2CCN(C)CC2)n1 [Compound N6N11D10] | 0.0% | 0.0%
40 | CCCCCCCCCCCCN(CCCCCCCCCCCC)c1nc(NCCN(CC)CC)nc(N(CCCCCCCCCCCC)CCCCCCCCCCCC)n1 [2N12^2N12D7] | 0.0% | 0.3%
41 | CCCCCCCCCCCSc1nc(NCCN(C)C)nc(SCCCCCCCCCCC)n1 [Compound S11S11D1] | 1.3% | 12.9%
42 | CCCCCCCCCCCCCCCCCCSc1nc(NCCCN2CCOCC2)nc(SCCCCCCCCCCCC)n1 [Compound S12S18D8] | 0.4% | 0.0%
43 | CCCCCCCCCCCCCNc1nc(NCCCCCCCC)nc(NCCN2CCCCC2)n1 [Compound N8N13D4] | 0.7% | 0.2%
44 | CCCCCCCCCCCCCNc1nc(NCCCCCCCCCCCC)nc(NCCN(C)C)n1 [Compound N12N13D1] | 1.2% | 1.6%
45 | CCCCCCCCCCCNc1nc(NCCCCCCCCCCC)nc(NCCN2CCN(C)CC2)n1 [Compound N11N11D5] | 0.9% | 0.4%
46 | CCCCCCCCCCCCNc1nc(NCCN(CC)CC)nc(N(CCCCCCCCCCCC)CCCCCCCCCCCC)n1 [N12^2N12D7] | 2.2% | 2.0%
47 | CCCCCCCCCCCCCCCCCCNc1nc(NCCCCCCCCC)nc(NCCN2CCN(C)CC2)n1 [Compound N9N18D5] | 0.0% | 0.9%
48 | CCCCCCCCCCCSc1nc(NCCN2CCCCC2)nc(SCCCCCCCCCCC)n1 [Compound S11S11D4] | 4.0% | 0.4%
